{
  "source": "patent US20220241223A1",
  "about": "“USE OF DISULFIRAM OR ITS DERIVATIVES FOR THE TREATMENT OF MITOCHONDRIAL DISEASES OR DYSFUNCTION” (Universite D'angers, priority 2019, published 2022)",
  "key": {"[1]": {"system": "mitochondrial complex I respiration in MELAS neuronal cybrid cells", "test": "Complex I linked respiration in permeabilized MELAS cybrid cells (Oroboros oxygraph)", "type": "cell-based, human", "details": "48 h exposure, low glucose medium (0.5 g/l)", "method": "FIG. 6: Effect of DSF on mitochondrial complex I respiration in MELAS neuronal cybrid cells after 48 h exposure in low glucose medium (0.5 g/l).\nFIG. 7: Effect of DSF at 10 nM after 48 h exposure on mitochondrial complex I (left) and complex IV (right) respiration in permeabilized MELAS neuronal cybrid cells, in low glucose medium (0.5 g/l).\nCellular oxygen consumption was measured at 37° C. in MELAS cybrid cells treated vs untreated mutant cells on a high-resolution oxygraph (Oroboros), as described elsewhere (Desquiret-Dumas et al., 2012).\nBriefly treated and untreated mutant cells were trypsinized and the pellet was resuspended in the respiratory buffer (KH2PO4 10 mM, mannitol 300 mM, KCl 10 mM, MgCl2 5 mM, pH 7.4) containing 15 μg/million cells of digitonin. Cells were incubated at room temperature during 2.5 minutes and the digitonin action was stopped by adding five volumes of the respiration buffer supplemented with 1 mg/ml of BSA. […] The oxygen consumption was measured in state II (5 mM malate+pyruvate), state III (5 mM malate+pyruvate+1.5 mM ADP+0.5 mM NAD or 5 mM succinate+10 μM rotenone+1.5 mM ADP+0.5 mM NAD), state IV (8 μg/ml oligomycin) and maximal cytochrome c oxidase capacity (4 mM ascorbate+0.2 mM TMPD). After oxygraphic measurement, […] of cell suspension was removed from the chamber and the protein concentration was measured using bicinchoninic acid."}, "[2]": {"system": "all the tested mutant strains", "test": "Halo test of growth on respiratory medium, all strains together (FIG. 1A)", "type": "cell-based, Saccharomyces cerevisiae", "details": "at different extents", "method": "A/ Effect of DSF on growth of various mutant yeast strains on a respiratory medium as detected by halo tests.\nEach of the various Saccharomyces cerevisiae yeast strains used in examples 1 to 3 contain different specific mutations modeling human mutations resulting in mitochondrial diseases. At different extents, all these yeast strains present growth defect when grown on respiratory medium such as ethanol or glycerol at 28° C. or 36° C. (depending on the strain). […]\nMore precisely, 200 μL of the various yeast mutant strain grown in liquid YPD rich fermentable medium (1% Yeast Extract, 0.5% Bacto Peptone, 2% Glucose) at 0.4 OD600 were spread on agar-based solid respiratory medium: either YPG (1% Yeast Extract, 0.5% Bacto Peptone, 2% glycerol) or YPE (1% Yeast Extract, 0.5% Bacto Peptone, 2% ethanol). Small sterile filters were then placed on the agar surface and increasing concentrations of DSF were added to the filters at the indicated quantities. […]"}},
  "data": [
    {"compound": "CCN(CC)C(=S)SSC(=S)N(CC)CC", "note": "[DSF, 1-(diethylthiocarbamoyldisulfanyl)-N,N-diethyl-methanethioamide]", "values": [
      {"measurement": "effect on complex I linked respiration", "setting": "[1]; FIG. 6, various concentrations", "value": "increases complex I linked respiration"},
      {"measurement": "effect on complex I linked respiration", "setting": "[1]; FIG. 7, 10 nM, permeabilized cells", "value": "increases mitochondrial complex I"},
      {"measurement": "effect on growth defect on non-fermentable (respiratory) medium", "setting": "[2]", "value": "suppresses the growth defect"}
    ]}
  ]
}
